# Measured values from the OligoGym collection.
# These antisense oligonucleotides have a phosphorothioate backbone; sugars and methylation of C are not fully specified.
# Molecular target: BIRC5
# Conditions: ASO
# Note: test concentration or dose not given here.
row,Sequence,remaining target (mRNA or protein) (fraction of control)
1,GGCTGACAGACACACGGC,0.59
2,AAGCAGCCACTGTTACCA,0.36
3,ATTCTCTAATCACACACA,0.74
4,CGATGGCACGGCGCACTT,0.28
5,GGTTAATTCTTCAAACTG,≥ 1
6,TTCTTGAATGTAGAGATG,≥ 1
7,GCGATTCAAATCTGGCGG,≥ 1
8,GGTCGTCATCTGGCTCCC,0.64
9,TTTGAAAATGTTGATCTC,0.92
10,GCTTCTTGACAGAAAGGA,0.65
11,AAAGAGAGAGAGAGAGAG,0.82
12,CTTTCAAGACAAAACAGG,≥ 1
13,TGAGAAAGGGCTGCCAGG,0.54
14,TCTTATTGTTGGTTTCCT,≥ 1
15,TGTGCTATTCTGTGAATT,0.8
16,ACAGGCAGAAGCACCTCT,≥ 1
17,CAAGTCTGGCTCGTTCTC,≥ 1
18,CCGTGTGGAGAACGTGAC,0.78
19,AAAAGGAGTATCTGCCAG,0.61
20,GGCGCAGCCCTCCAAGAA,0.62

row,Sequence,remaining target (mRNA or protein) (fraction of control)
1,CTGTCTCCTCATCCACCT,0.59
2,ACTGTGGAAGGCTCTGCC,≥ 1
3,CCACGCGAACAAAGCTGT,0.38
4,ATGACAGGGAGGAGGGCG,≥ 1
5,CCTCTGCCAACGGGTCCC,0.96
6,TACGCCAGACTTCAGCCC,0.99
7,TCGCAGTTTCCTCAAATT,0.63
8,CCTGGAAGTGGTGCAGCC,0.84
9,TCTTGGCTCTTTCTCTGT,0.66
10,AGGACTGTGACAGCCTCA,0.38
11,ACAGTTGAAACATCTAAT,≥ 1
12,GCCGAGATGACCTCCAGA,0.34
13,AGGGACACTGCCTTCTTC,0.57
14,TCCCTCACTTCTCACCTG,0.71
15,TCCAGCTCCTTGAAGCAG,0.68
16,TGTTGTTAAACAGTAGAG,≥ 1
17,GAGGAGCGGCCAGCATGT,0.53
18,TCAGATTCAACAGGCACC,≥ 1
19,ACAGGAAGGCTGGTGGCA,0.3
20,GACTTAGAATGGCTTTGT,0.63

# Molecular target: CTNNB1
# Conditions: ASO
row,Sequence,remaining target (mRNA or protein) (fraction of control)
1,AGCTTGAGTAGCCATTGTCC,0.34
2,TAGAGTGATTATGAATTAAT,0.7
3,AGGTGCATGATTTGCGGGAC,0.62
4,CCTCTCAGCAACTCTACAGG,0.24
5,ACCAGGGTGGTGGCCACCCA,0.48
6,CCTCTGATAACAATTCGGTT,0.52
7,GTTGTATGGTATACTTCAAA,0.69
8,AGCAGACACCATCTGAGGAG,0.3
9,ACCAAGCATTTTCACCAGGG,0.4
10,CTGGTCAGCTCAACTGAAAG,0.41
11,CAAAACAAGGTTCCAAATAA,0.56
12,TTGTCCACGCTGGATTTTCA,0.52
13,TGAGTAGCCATTGTCCACGC,0.35
14,TAGCAGTTTTGTCAGTTCAG,≥ 1
15,TCGCCACACCTTCATTCCTA,0.37
16,TTCTCTTGAAGCATCGTATC,0.2
17,GTCCTGAGCAAGTTCACAGA,0.37
18,CTGTCAGAGGAGCTGTGGCT,0.64
19,CGACCTGCGGTGGCGGCTCG,0.36
20,AAACTGTGTAGATGGGATCT,0.57
21,CAAATCAGCTTGAGTAGCCA,0.49
22,CTAAAGGATGATTTACAGGT,0.54
23,AGTAGCCATTGTCCACGCTG,0.37
24,TCAGCTTGAGTAGCCATTGT,0.31
25,CCCATAGGAAACTCAGCTTG,0.29
26,CTTGAGTAGCCATTGTCCAC,≥ 1

# Molecular target: MAP2K2
# Conditions: ASO
row,Sequence,remaining target (mRNA or protein) (fraction of control)
1,AACACACCGTTGGGCAGC,0.13
2,CTTCTGCTGCTCGTCAAG,0.65
3,ATCTCAAGGTGGATCAGC,0.71
4,CACTTCTTCCACCTCGGA,0.31
5,TCATCGTCTTTGAGTTCG,0.45
6,CGTGCCCACGAAGGAGTT,0.26
7,GTTCACGAGGATGTTGGA,0.82
8,GTGTCCTCAGCTGGAAGG,0.61
9,CTGTGCTGGACTTTGGTG,0.42
10,ACGCAGGGAGCCCGGCCA,0.29
11,GTGCCCTGCAACCGCTCC,0.14
12,AGCTTCCTGGCCATGATG,0.36
13,TTGGCTTTCTGGGTGAGA,0.83
14,TACCTTCCGACGGCCAGC,0.18
15,CTGGTTCAGCCGCAGGGT,0.34
16,GGTTCTTGATGAGGCATT,0.31
17,CAGATGTCCGACTGCACC,0.32

row,Sequence,remaining target (mRNA or protein) (fraction of control)
1,GTTTTGTTTTGTAACCTA,0.72
2,TAACCTAAGGAAGCAGAG,0.33
3,TCTCCTCGGGAATCCTCT,0.43
4,CTTCCTCCGGGCCAGCAT,0.37
5,AGCGTCGCCCGTCCCCAG,0.15
6,ATGATCTGGTTCCGGATG,0.35
7,CGTTCACAATATAGTCCA,0.4
8,TCCACCAGGTTTGCCTCG,0.14
9,GTGCATGATCTGGTGCTT,0.24
10,GATGTACGGCGAGTTGCA,0.81
11,GGTGCTCTCCGCAGGGTG,0.2
12,TCACCCCGAAGTCACACA,0.56
13,CGGTCGGTCGGCTCGAAT,0.8
14,TTTCGAAGTCATCGTCTT,0.56
15,GAGGTACGCCAAGCCCCG,0.11
16,GGTAGGGTTGATGGTGAG,0.56

# Molecular target: RELA
# Conditions: ASO
row,Sequence,remaining target (mRNA or protein) (fraction of control)
1,GACAGCGTTCCTTCCCCA,≥ 1
2,ATGGAGGAGAAGTCTTCA,≥ 1
3,CGTAGTCCCCACGCTGCT,0.29
4,TAGCCATTGATCTTGATG,0.78
5,AAAGGAGCCTCGGGCCTC,0.37
6,GCCGGTGAGGAGGGTCCT,0.71
7,ATGGGTCCCGCACTGTCA,0.38
8,GCAGTCCTTTCCTACAAG,0.95
9,TCACTAGGCGAGTTATAG,0.53
10,CTCATAGAAGCCATCCCG,0.69
11,GATCTGACTCAGCAGGGC,0.27
12,CAGGTCCCGCTTCTTCAC,0.33
13,GCTCAGGGATGACGTAAA,0.45
14,TCACACACTGGATTCCCA,0.81
15,CCTGGTCCTGTGTAGCCA,0.78
16,CAATGTCCTCTTTCTGCA,0.78
17,AGCTGAGCTGCGGGAAGG,0.86
18,TTCTGCACCTTGTCACAC,0.37
19,GTCTGTGCTGTTGCCAAG,0.87
20,GACGAGCCATTCGCCGGA,0.52

row,Sequence,remaining target (mRNA or protein) (fraction of control)
1,GGATGCGCTGACTGATAG,0.31
2,CTCAATGATCTCCACATA,≥ 1
3,ATGCGTCGAGGTGGAGGC,0.6
4,TGTCCTTTTACGTTTCTC,0.74
5,AGGTATGCCCTGGTTCAG,0.61
6,AGCCTGGTCCCGTGAAAT,0.5
7,TTCGGTTCACTCGGCAGA,≥ 1
8,GCACTTGTAGCGGAAGCG,≥ 1
9,AGAGCCGCACAGCATTCA,0.46
10,TTGGTGGTATCTGTGCTC,0.53
11,ACCTGGAAGCAGAGCCGC,0.31
12,CTGCCGGGAAGATGAGGG,0.84
13,TCACACAGTAGGAAGATC,0.74
14,GTTGTTGGTCTGGATGCG,0.63
15,GCACATCAGCTTGCGAAA,≥ 1
16,TGCCCAGAAGGAAACACC,0.66
17,ATGAGGAAGGACAGGCGG,≥ 1
18,CAAAGATGGGATGAGGAA,≥ 1
19,TGTATCTGGCAGGTACTG,≥ 1
20,TCTGGAAACTGTGGATGC,≥ 1
